One assay deals with p-STAT3. The assay can be described thus: Western blot of p-STAT3 in MDSL cells challenged with human recombinant IL-6. The assay is classed as cell-based. Conditions: 1 hour treatment, then human recombinant IL-6 10 ng/mL for 15 min, vs IgG. The procedure:
(§1) (A) Cultured MDS-derived cell line (MDSL) cells were treated with tocilizumab or IgG for 1 hour at the indicated concentration. Cells were then challenged with human recombinant IL-6 (10 ng/mL) for 15 min followed by a western blot assay of p-STAT3. Actin was used as a loading control. (B) 1×10^4/well MDSL cells were seeded in a 96-well plate on day 0 in MDSL culture medium with 50 μg/mL tocilizumab or 50 μg/mL human IgG control. Relative cell number was assessed with CCK-8 reagent at the indicated time points. (C) 1×10^6 MDSL cells were transplanted into sub-lethally irradiated NSG recipient mice. 10 days after transplantation, mice were subjected to weekly treatment with tocilizumab (TCZ) or human IgG (8 mg/kg) by intraperitoneal administration. Engraftment was evaluated 60 days post transplantation via flow cytometry assays of hCD45+ mononuclear cells in the peripheral blood. N=5 in each group, data are presented as Mean±SD. (D) Quantification of the percentage of hCD45+ cells in C. (E-F) Colony-forming unit (CFU) assays in normal (E) and high risk MDS patient (F) bone marrow derived CD34+ cells. 1×10^3 normal (E) or 2×10^3 patient CD34+ cells (F) were seeded in MethoCult medium supplemented with human IgG or tocilizumab (50 μg/mL) on day 0. The number of colonies was accessed on day 14. Triplicate assay colonies were independently identified by two individuals. […]
(In general: A western blot detects proteins with antibodies after separation by electrophoresis.)

Assay [1] concerns MDSL cells. The assay can be described thus: MDSL cell proliferation (CCK-8). The assay is classed as cell-based. Conditions: 50 μg/mL, vs human IgG control. How it is done: as §1
Assay [2] relates to MDSL cells. The assay can be described thus: Cell death in MDSL cells. The assay is classed as cell-based, human.
The subject of assay [3] is MDSL cells. The assay can be described thus: Xenograft of MDSL cells in NSG mice. The class given is in vivo, mouse. Conditions: 8 mg/kg weekly intraperitoneal; for spleen weight: NSG mice transplanted with MDSL cells. The procedure: (A) Cultured MDS-derived cell line (MDSL) cells were treated with tocilizumab or IgG for 1 hour at the indicated concentration. Cells were then challenged with human recombinant IL-6 (10 ng/mL) for 15 min followed by a western blot assay of p-STAT3. Actin was used as a loading control. (B) 1×10^4/well MDSL cells were seeded in a 96-well plate on day 0 in MDSL culture medium with 50 μg/mL tocilizumab or 50 μg/mL human IgG control. Relative cell number was assessed with CCK-8 reagent at the indicated time points. (C) 1×10^6 MDSL cells were transplanted into sub-lethally irradiated NSG recipient mice. 10 days after transplantation, mice were subjected to weekly treatment with tocilizumab (TCZ) or human IgG (8 mg/kg) by intraperitoneal administration. Engraftment was evaluated 60 days post transplantation via flow cytometry assays of hCD45+ mononuclear cells in the peripheral blood. N=5 in each group, data are presented as Mean±SD. (D) Quantification of the percentage of hCD45+ cells in C. (E-F) Colony-forming unit (CFU) assays in normal (E) and high risk MDS patient (F) bone marrow derived CD34+ cells. 1×10^3 normal (E) or 2×10^3 patient CD34+ cells (F) were seeded in MethoCult medium supplemented with human IgG or tocilizumab (50 μg/mL) on day 0. The number of colonies was accessed on day 14. Triplicate assay colonies were independently identified by two individuals. Data are presented as Mean±SD. E, G, M, GM, and GEMM represent BFU/CFU-E, CFU-G, CFU-M, CFU-GM, and CFU-GEMM, respectively, in both E and F.
NOD/SCID-IL2Rg mice (NSG) mice were purchased from the Jackson Laboratory (Stock #005557). 1×10^6 of MDS-derived cell line (MDSL) cells were retro-orbitally injected into 12-week-old sub-lethally irradiated (250 rad) female NSG mice. Ten days after transplantation, human IgG isotype control (BE0297, InVivoMab) or tocilizumab (Selleck) were administered at 8 mg/kg weekly via intraperitoneal injection. To evaluate the engraftment, peripheral blood was collected from tail vein on day 60. […]

For assay [4], the system named is normal bone marrow CD34+ cells. The assay can be described thus: Colony-forming unit (CFU) assay, normal bone marrow CD34+ cells. The class given is cell-based. Conditions: 50 μg/mL, day 14, vs human IgG. The procedure:
as §1, with “C.” for “C. (E-F) Colony-forming unit (CFU) assays in normal (E) and high risk MDS patient (F) bone marrow derived CD34+ cells. 1×10^3 normal (E) or 2×10^3 patient CD34+ cells (F) were seeded in MethoCult medium supplemented with human IgG or tocilizumab (50 μg/mL) on day 0. The number of colonies was accessed on day 14. Triplicate assay colonies were independently identified by two individuals.”
(§2) For the CFU assay, CD34+ cells were thawed in a 37° C. water bath. […] Cell viability was assessed with trypan blue staining and counted with Bio-Rad TC20 cell counter. […] 14 days after seeding, the CFU assay was ready for evaluation. Colonies were counted under an inverted microscope (EVOS M5000, Thermo Fisher), and the colonies were identified by two independent individuals.

Assay [5] deals with high risk MDS patient bone marrow derived CD34+ cells. Description: Colony-forming unit (CFU) assay, high risk MDS patient bone marrow CD34+ cells. The assay is classed as cell-based. Conditions: CD34+ cells from high risk MDS patients, 50 μg/mL, day 14, vs human IgG. The procedure: as §1, with “C.” for “C. (E-F) Colony-forming unit (CFU) assays in normal (E) and high risk MDS patient (F) bone marrow derived CD34+ cells. 1×10^3 normal (E) or 2×10^3 patient CD34+ cells (F) were seeded in MethoCult medium supplemented with human IgG or tocilizumab (50 μg/mL) on day 0. The number of colonies was accessed on day 14. Triplicate assay colonies were independently identified by two individuals.”
as §2

The conditions of assay [6]: transfusion-dependent patients, low or intermediate-1-risk MDS, vs placebo; cited from earlier work.

Entries after “also recorded” stand apart in the source; their conditions may differ.

For the molecule tocilizumab, in the assay on p-STAT3, the p-STAT3 entry was “significant reduction”. Besides, the “cell proliferation (relative cell number, CCK-8)” value in the assay with MDSL cells [1] is “decreased cell proliferation; also recorded: reduces cell proliferation”. The cell death result in the assay with MDSL cells [2] is given as “partial induction of cell death; also recorded: partially induces cell death”. For the same molecule, the spleen weight entry in the assay on MDSL cells [3] is recorded as “reduces spleen weight”; with MDSL cells [3] (listed as Tocilizumab), “reduced the spleen weight”. In addition, in the assay with MDSL cells [3] (NSG mice, 60 days post transplantation, vs human IgG), the “MDSL engraftment (hCD45+ mononuclear cells in the peripheral blood)” value is “significantly reduced MDSL engraftment; also recorded: markedly reduced the engraftment”. The “colony expansion or composition / colony numbers” value in assay [4] is reported as “no effects on the colony numbers”; in assay [4] (listed as Tocilizumab), “did not affect colony expansion or composition”. Further, the “colony numbers / clonogenicity” value in assay [5] was “markedly reduced; also recorded: reduces cell proliferation and colony formation; also recorded: reduces the colony numbers”; in assay [5] (listed as Tocilizumab), “significantly reduced clonogenicity”.

B1: siltuximab (antibody, chains of the INN, looked up, V domains shown)
VH: EVQLVESGGKLLKPGGSLKLSCAASGFTFSSFAMSWFRQSPEKRLEWVAEISSGGSYTYYPDTVTGRFTISRDNAKNTLYLEMSSLRSEDTAMYYCARGLWGYYALDYWGQGTSVTVSS
VL: QIVLIQSPAIMSASPGEKVTMTCSASSSVSYMYWYQQKPGSSPRLLIYDTSNLASGVPVRFSGSGSGTSYSLTISRMEAEDAATYYCQQWSGYPYTFGGGTKLEIK
Regarding B1, the RBC transfusions result in assay [6] is “no reduction in RBC transfusions”.
